Data on one sequence can be found in patent US10137185B2, “PAP peptide analogues” (THE NOTTINGHAM TRENT UNIVERSITY, priority 2014, dated 2018).

Assay [1] deals with PBMCs from HLA-A2 positive patients with prostate cancer and individuals with benign disease. Put plainly: IFNγ ELISPOT of PBMCs from prostate cancer patients and individuals with benign disease after peptide re-stimulation. The format is cell-based, human. As to the method:
FIG. 3. IFNγ response of peripheral blood mononuclear cells (PBMCs) isolated from patients with prostate cancer and individuals with benign disease after re-stimulation with PAP-115-123 epitope using an ELISPOT assay. Cryopreserved PBMCs from ten HLA-A2 positive prostate cancer patients and ten benign candidates were compared. The PBMCs were cultured in vitro with 5 μg of PAP-114-128 epitope for 7 days. The cells were then washed and rested overnight and 4×10^4 cells were added to each well of an ELISPOT plate. PAP-115-123 epitope peptide (1 μg) was added per well and cells cultured for 48 hours. The plates were then washed according to the manufacturer's protocol. PBMCs with no added peptide were used as control. Comparisons of means (±SEM) between groups (cells pulsed with PAP-115-123 or no peptide) are made using an unpaired t test.
FIG. 12. IFNγ responses generated by PBMCs isolated from 10 patients with prostate cancer and 10 individuals with benign disease after re-stimulation with the PAP-115-123 analogue epitope peptide, as determined using an ELISPOT assay. PBMCs were cultured in vitro with 5 μg of PAP-114-128 analogue epitope for 7 days. The cells were then washed and rested overnight, at which time and 4×10^4 cells were added to each well of an ELISPOT plate. PAP-115-123 analogue epitope peptide (1 μg) was added to each well and the cells were cultured for 48 hours. The plates were then washed according to the manufacturer's protocol. PBMCs cultured with no added peptide were used as the control. Comparisons of means (±SEM) between groups (PBMCs pulsed with PAP-115-123 analogue or no peptide) are made using an unpaired t test.
To determine the presence of circulating T cells specific for PAP-115-123 in humans, PBMCs from HLA-A2 positive patients with prostate cancer and individuals with benign disease were used. Cryopreserved PBMCs were thawed, washed and restimulated for 7 days with […] epitope peptide. The cells were then washed and rested overnight, at which time 4×10^4 cells were added to each well of an ELISPOT plate. PAP-115-123 epitope peptide (1 μg) was added to each well and the cells cultured for 48 hours. The plates were developed according to the manufacturer's instructions. PBMCs cultured with no peptide were used as controls. […] The number of IFNγ spots generated by PBMCs from one of the patients was as high as 220 (vs 60 spots for the control). The number of spots generated by PBMCs for the other 6 patients with prostate cancer ranged between 50 and 100 (vs 10-20 in controls). Although some of the PBMCs from individuals with benign disease generated 50-100 spots, the number of spots in the control wells was also high.
To determine the presence of circulating T cells specific for PAP-115-123 analogue peptide in humans, PBMCs from HLA-A2 positive patients with prostate cancer and individuals with benign disease were used. Cryopreserved PBMCs were thawed, washed and restimulated for 7 days with […] analogue epitope. The cells were then washed and rested overnight, at which time 4×10^4 cells were added to each well of an ELISPOT plate. 1 μg of PAP-115-123 analogue epitope was added to each well and cells were cultured for 48 hours. The plates were developed as per the manufacturer's instructions. PBMCs cultured with no peptide were used as control. […] The number of IFNγ spots in one of the patients was as high as 180 spots compared to control (54 spots). Similar response was also obtained when PBMCs were co-cultured with PAP-115-123 epitope (FIG. 3). The number of spots generated by PBMCs from the 6 patients with prostate cancer patients ranged between 50 and 100 (vs 10-20 in control wells). Although some of the samples from individuals with benign disease generated 50-100 spots, the number of spots in the control wells was also high.

Assay [2] relates to PBMCs isolated from patients with prostate cancer. The assay is described as follows: IFNγ ELISA of supernatants of PBMCs, Norway clinical trial. It counts as cell-based, human. As to the method:
FIG. 8. Fold change in the IFNγ response generated by PBMCs isolated from patients with prostate cancer from the Norway Clinical Trial after re-stimulation with of PAP-115-123 epitope peptide (10 μg), as assessed using an ELISA. Patients that were reported to have responded to the treatment (p10, p12, p15, p19, p101, p102, p107, p108) are indicated by red bars. […] The cryopreserved PBMCs were washed and rested overnight, at which time 4×10^4 cells were added to each well of a 96 well plate. PAP-115-123 epitope peptide (10 μg) was added to each well and the plates cultured for 48 hours. Supernatants were harvested and analysed for IFNγ secretion.
Cryopreserved PBMCs were thawed, washed and rested overnight, at which time 4×10^4 cells were added to each well of an ELISPOT plate. PAP-115-123 epitope peptide (10 μg) was to each well and cells were cultured for 48 hours. The plates were developed according to the manufacturer's protocol. PBMCs cultured with HIV-derived peptide or no peptide were used as controls. A 2-4 fold higher PAP-115-123 specific IFNγ response was observed using PBMCs from 8 of the responder patients and 2-12 fold decreases in the IFNγ response was observed using PBMCs from 4 of the non-responder patients (FIG. 7). IFNγ secretion in these samples was confirmed by analysing harvested supernatants using an R&D Systems ELISA (FIG. 8). […]
For orientation: An ELISA detects its analyte on a solid surface through an enzyme-linked reagent.

For the sequence SAMTNLAAL [PAP-115-123], in assay [1] (1 μg peptide, 4×10^4 cells per well, 10-20 in controls), the “number of spots, other 6 patients with prostate cancer” value was 50-100 spots. Besides, the “number of spots, some PBMCs from individuals with benign disease” value in assay [1] (1 μg peptide, spots in control wells also high) is listed as 50-100 spots. Also, in assay [1] (10 benign individuals, 1 μg peptide), the “peptide-specific IFNγ response in samples from individuals with benign disease” value was “no PAP-115-123 specific IFNγ response and none”. In addition, the “PBMC samples from patients with prostate cancer with peptide-specific IFNγ response” value in assay [1] (of 10 samples, 7 days re-stimulation with the 15-mer, then 1 μg peptide, 48 hours, vs no peptide) is 7. The “number of IFNγ spots, highest patient” value in assay [1] (one prostate cancer patient, 1 μg peptide, 4×10^4 cells per well, 48 hours) worked out at 220 spots. In assay [2] (10 μg peptide), the “fold lower IFNγ levels post vs pre vaccination, non-responders” value was 2-2.5 fold. Moreover, the “fold higher IFNγ levels post vs pre vaccination, responders” value in assay [2] (all responders except p19, 10 μg peptide) was 1-1.5 fold.
